{
  "source": "patent US20170065564A1",
  "about": "“BIS-CYCLIC GUANIDINE COMPOUND COMPOSITIONS, METHODS OF USE AND TREATMENT THEREOF” (University of South Florida, priority 2014, published 2017)",
  "key": {"[1]": {"system": "Klebsiella pneumoniae biofilm", "assay": "Minimum biofilm eradication concentration (MBEC) assay", "assay_type": "cell-based", "settings": "24 h biofilm, purified compound", "description": "(§1) The minimum biofilm eradication concentration (MBEC) was determined in 96-well microtiter plates as follows. Broth cultures of ESKAPE strains were grown using the conditions described above. Biofilms for each of the ESKAPE pathogens were generated from these as we have previously described for S. aureus, however human serum was not used for non-staphylococcal organisms.^44 46 For all organisms, biofilms were developed by standardizing an overnight culture into fresh media to an OD600 of 0.5 and adding 150 μl into each well of a 96-well microtiter plate. […] These cultures were incubated at 37° C. overnight alongside no drug controls. After 24 hours, the media was removed from wells and the biofilm resuspended in phosphate buffered saline (PBS). Cultures were mixed by vigorous pipetting, before being serially diluted in PBS, and plated in duplicate on relevant agar. Plates were incubated at 37° C. for 24 hours, and CFUs determined by enumeration. Each analysis was performed using three technical replicates, and antibiofilm activity was determined by comparing treated to untreated samples."}, "[2]": {"system": "Acinetobacter baumannii biofilm", "assay": "Minimum biofilm eradication concentration (MBEC) assay", "assay_type": "cell-based", "settings": "24 h biofilm, purified compound", "description": "as §1"}, "[3]": {"system": "Enterobacter cloacae biofilm", "assay": "Minimum biofilm eradication concentration (MBEC) assay", "assay_type": "cell-based", "settings": "24 h biofilm, purified compound", "description": "as §1"}, "[4]": {"system": "Pseudomonas aeruginosa biofilm", "assay": "Minimum biofilm eradication concentration (MBEC) assay", "assay_type": "cell-based", "settings": "24 h biofilm, purified compound", "description": "as §1"}, "[5]": {"system": "Enterococcus faecium biofilm", "assay": "Minimum biofilm eradication concentration (MBEC) assay", "assay_type": "cell-based", "settings": "24 h biofilm, purified compound", "description": "as §1"}, "[6]": {"system": "Staphylococcus aureus biofilm", "assay": "Minimum biofilm eradication concentration (MBEC) assay", "assay_type": "cell-based", "settings": "24 h biofilm, purified compound", "description": "as §1"}, "Enterococcus faecium": {"system": "Enterococcus faecium", "assay": "Minimal bactericidal concentration (MBC) assay", "assay_type": "cell-based", "settings": "Enterococcus faecium, purified compound; read-out: MBC90", "description": "(§2) Briefly, compound was washed by centrifugation and serial dilution, before plating on Tryptic Soy Agar (TSA). Plates were incubated for 24 hours at 37° C. and cell viability assessed by determining CFU/ml at each concentration, for every compound. Percent recovery was then determined compared to CFU/ml from no drug controls. All concentrations and controls were tested using three biological replicates, alongside two technical replicates for each data point."}, "Acinetobacter baumannii [7]": {"system": "Acinetobacter baumannii", "assay": "Minimal bactericidal concentration (MBC) assay", "assay_type": "cell-based", "settings": "Acinetobacter baumannii, purified compound; read-out: MBC90", "description": "as §2"}, "Pseudomonas aeruginosa [8]": {"system": "Pseudomonas aeruginosa", "assay": "Minimal bactericidal concentration (MBC) assay", "assay_type": "cell-based", "settings": "Pseudomonas aeruginosa; purified compound; read-out: MBC90", "description": "as §2"}, "Staphylococcus aureus": {"system": "Staphylococcus aureus", "assay": "Minimal bactericidal concentration (MBC) assay", "assay_type": "cell-based", "settings": "Staphylococcus aureus, purified compound; read-out: MBC90", "description": "as §2"}, "Enterobacter cloacae": {"system": "Enterobacter cloacae", "assay": "Minimal bactericidal concentration (MBC) assay", "assay_type": "cell-based", "settings": "Enterobacter cloacae; purified compound; read-out: MBC90", "description": "as §2"}, "Klebsiella pneumoniae [9]": {"system": "Klebsiella pneumoniae", "assay": "Minimal bactericidal concentration (MBC) assay", "assay_type": "cell-based", "settings": "Klebsiella pneumoniae, purified compound; read-out: MBC90", "description": "as §2"}, "Klebsiella pneumoniae [10]": {"system": "Klebsiella pneumoniae", "assay": "MIC micro broth dilution assay", "assay_type": "cell-based", "settings": "for MIC: Klebsiella pneumoniae", "summary_of_the_method": "(§3)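 Strains were multidrug-resistant clinical isolates grown in LB (Gram-negative) or TSB (Gram-positive), diluted 1:1,000 before compound addition.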"}, "Pseudomonas aeruginosa [11]": {"system": "Pseudomonas aeruginosa", "assay": "MIC micro broth dilution assay", "assay_type": "cell-based", "settings": "for MIC: Pseudomonas aeruginosa", "description": "For this study we used a representative panel of multi-drug resistant clinical ESKAPE pathogen isolates (Supplemental Table S6).^42 43 3a, 44 45 Gram-positive organisms were grown in tryptic soy broth media (TSB), whilst Gram-negative organisms were grown in lysogeny Broth (LB), as described by us previously. ^43 MIC and MBC determination assays.\nBroth cultures of ESKAPE strains were grown overnight before being diluted 1 in 1,000 in fresh media. Sterile 96-well plates were loaded with culture and compounds (in DMF) were added at decreasing concentrations to equal a total volume of 200 μl per well. Care was taken to not add more than 2.0% DMF to any well. Plates were then incubated at 37° C., and MICs determined after 24 hours by visual inspection for a lack of turbidity in wells. All assays were performed in triplicate with identical results obtained. For both the scaffold ranking and positional scanning samples, relative broad-spectrum activity was determined via stacked scores: […]"}, "A. baumannii": {"system": "A. baumannii", "assay": "Resistance serial passage assay", "assay_type": "cell-based, Acinetobacter baumannii", "settings": "8 passages, concentration doubled each day", "description": "(§4) ESKAPE pathogens were grown overnight in liquid media at 37° C. These cultures were then diluted 1:100 in fresh media, and seeded into a 96-well plate. Lead bis-cyclic guanidines or control agents were added to respective wells at half MIC concentrations. Plates were then incubated for 24 hours at 37° C., with bacteria removed from these cultures on the following day, to inoculate fresh media (1:100 dilution) containing compounds at a 2-fold higher concentrations. These were then grown overnight, and the procedure repeated for a total of eight days. […] Each experiment was performed in triplicate, yielding identical results."}, "Acinetobacter baumannii [12]": {"system": "Acinetobacter baumannii", "assay": "MIC micro broth dilution assay", "assay_type": "cell-based", "settings": "for MIC: Acinetobacter baumannii", "summary_of_the_method": "as §3"}, "K. pneumoniae": {"system": "K. pneumoniae", "assay": "Resistance serial passage assay", "assay_type": "cell-based, Klebsiella pneumoniae", "settings": "8 passages, concentration doubled each day", "description": "as §4"}, "[13]": {"settings": "panel of K. pneumoniae clinical isolates"}},
  "data": [
    {"compound": "CCCC[C@H]1CN(CCCC[C@H]2CNC(=N)N2CCc2cccc(C(F)(F)F)c2)C(=N)N1CCCCC1CCCCC1", "note": "[Compound 2, (S)-4-butyl-3-(4-cyclohexylbutyl)-1-(4-((S)-2-imino-3-(3-(trifluoromethyl)phenethyl)imidazolidin-4-yl)butyl)imidazolidin-2-imine]", "values": [
      {"measurement": "MBEC50", "setting": "[1]", "result": 4.65, "unit": "µM"},
      {"measurement": "MBEC50", "setting": "[2]", "result": 15.84, "unit": "µM"},
      {"measurement": "MBEC50", "setting": "[3]", "result": 13.44, "unit": "µM"},
      {"measurement": "MBEC50", "setting": "[4]", "result": 30.62, "unit": "µM"},
      {"measurement": "MBEC50", "setting": "[5]", "result": 29.20, "unit": "µM"},
      {"measurement": "MBEC50", "setting": "[6]", "result": 2.18, "unit": "µM"},
      {"measurement": "MBC", "setting": "Enterococcus faecium", "result": 1.66, "unit": "µM"},
      {"measurement": "MBC", "setting": "Acinetobacter baumannii [7]", "result": 2.83, "unit": "µM"},
      {"measurement": "MBC", "setting": "Pseudomonas aeruginosa [8]", "result": 2.32, "unit": "µM"},
      {"measurement": "MBC", "setting": "Staphylococcus aureus", "result": 2.03, "unit": "µM"},
      {"measurement": "MBC", "setting": "Enterobacter cloacae", "result": 4.15, "unit": "µM"},
      {"measurement": "MBC", "setting": "Klebsiella pneumoniae [9]", "result": 3.98, "unit": "µM"},
      {"measurement": "stacked score activity, 100/MIC, K", "setting": "Klebsiella pneumoniae [10]; K. pneumoniae", "result": 20},
      {"measurement": "MIC", "setting": "Klebsiella pneumoniae [10]; K. pneumoniae isolate 1408", "result": 2, "unit": "µM"},
      {"measurement": "MIC", "setting": "Klebsiella pneumoniae [10]; K. pneumoniae isolate 1409", "result": 3, "unit": "µM"},
      {"measurement": "MIC", "setting": "Klebsiella pneumoniae [10]; K. pneumoniae isolate 1410", "result": 2, "unit": "µM"},
      {"measurement": "MIC", "setting": "Klebsiella pneumoniae [10]; K. pneumoniae isolate 1411", "result": 2, "unit": "µM"},
      {"measurement": "MIC", "setting": "Klebsiella pneumoniae [10]; K. pneumoniae isolate 1412", "result": 2, "unit": "µM"},
      {"measurement": "MIC", "setting": "Klebsiella pneumoniae [10]; K. pneumoniae isolate 1413", "result": 2, "unit": "µM"},
      {"measurement": "MIC", "setting": "Klebsiella pneumoniae [10]; K. pneumoniae isolate 1433", "result": 2, "unit": "µM"},
      {"measurement": "MIC", "setting": "Klebsiella pneumoniae [10]; K. pneumoniae isolate 1434", "result": 3, "unit": "µM"},
      {"measurement": "MIC", "setting": "Klebsiella pneumoniae [10]; K. pneumoniae isolate 1440", "result": 5, "unit": "µM"},
      {"measurement": "MIC", "setting": "Klebsiella pneumoniae [10]; K. pneumoniae isolate 1441", "result": 2, "unit": "µM"},
      {"measurement": "MIC", "setting": "Klebsiella pneumoniae [10]; purified compound, Table 1", "result": 1.52, "unit": "µM"},
      {"measurement": "concentration inhibiting 70% of strains", "setting": "Klebsiella pneumoniae [10]; [13]", "result": 2, "unit": "µM"},
      {"measurement": "concentration inhibiting 90% of isolates", "setting": "Klebsiella pneumoniae [10]; [13]", "result": 5, "unit": "µM"},
      {"measurement": "MIC", "setting": "Pseudomonas aeruginosa [11]; P. aeruginosa isolate 1414", "result": 3, "unit": "µM"},
      {"measurement": "MIC", "setting": "Pseudomonas aeruginosa [11]; P. aeruginosa isolate 1415", "result": 3, "unit": "µM"},
      {"measurement": "MIC", "setting": "Pseudomonas aeruginosa [11]; P. aeruginosa isolate 1416", "result": 2, "unit": "µM"},
      {"measurement": "MIC", "setting": "Pseudomonas aeruginosa [11]; P. aeruginosa isolate 1417", "result": 3, "unit": "µM"},
      {"measurement": "MIC", "setting": "Pseudomonas aeruginosa [11]; P. aeruginosa isolate 1418", "result": 7, "unit": "µM"},
      {"measurement": "MIC", "setting": "Pseudomonas aeruginosa [11]; P. aeruginosa isolate 1419", "result": 3, "unit": "µM"},
      {"measurement": "MIC", "setting": "Pseudomonas aeruginosa [11]; P. aeruginosa isolate 1420", "result": 3, "unit": "µM"},
      {"measurement": "MIC", "setting": "Pseudomonas aeruginosa [11]; P. aeruginosa isolate 1421", "result": 3, "unit": "µM"},
      {"measurement": "MIC", "setting": "Pseudomonas aeruginosa [11]; P. aeruginosa isolate 1422", "result": 3, "unit": "µM"},
      {"measurement": "MIC", "setting": "Pseudomonas aeruginosa [11]; P. aeruginosa isolate 1423", "result": 2, "unit": "µM"},
      {"measurement": "MIC", "setting": "Pseudomonas aeruginosa [11]; purified compound, Table 1", "result": 1.52, "unit": "µM"},
      {"measurement": "concentration inhibiting 90% of isolates", "setting": "Pseudomonas aeruginosa [11]; panel of P. aeruginosa clinical isolates", "result": 5, "unit": "µM"},
      {"measurement": "increase in MIC after serial passage", "setting": "A. baumannii", "result": 8, "unit": "fold"},
      {"measurement": "stacked score activity, 100/MIC, A", "setting": "Acinetobacter baumannii [12]; A. baumannii", "result": 25},
      {"measurement": "MIC", "setting": "Acinetobacter baumannii [12]; A. baumannii isolate 1403", "result": 2, "unit": "µM"},
      {"measurement": "MIC", "setting": "Acinetobacter baumannii [12]; A. baumannii isolate 1643", "result": 2, "unit": "µM"},
      {"measurement": "MIC", "setting": "Acinetobacter baumannii [12]; A. baumannii isolate 1644", "result": 2, "unit": "µM"},
      {"measurement": "MIC", "setting": "Acinetobacter baumannii [12]; A. baumannii isolate 1647", "result": 2, "unit": "µM"},
      {"measurement": "MIC", "setting": "Acinetobacter baumannii [12]; A. baumannii isolate 1648", "result": 2, "unit": "µM"},
      {"measurement": "MIC", "setting": "Acinetobacter baumannii [12]; A. baumannii isolate 1649", "result": 2, "unit": "µM"},
      {"measurement": "MIC", "setting": "Acinetobacter baumannii [12]; A. baumannii isolate 1650", "result": 2, "unit": "µM"},
      {"measurement": "MIC", "setting": "Acinetobacter baumannii [12]; A. baumannii isolate 1651", "result": 2, "unit": "µM"},
      {"measurement": "MIC", "setting": "Acinetobacter baumannii [12]; A. baumannii isolate 1653", "result": 2, "unit": "µM"},
      {"measurement": "MIC", "setting": "Acinetobacter baumannii [12]; A. baumannii isolate 1654", "result": 2, "unit": "µM"},
      {"measurement": "MIC", "setting": "Acinetobacter baumannii [12]; purified compound, Table 1", "result": 1.52, "unit": "µM"},
      {"measurement": "increase in MIC after serial passage", "setting": "K. pneumoniae", "result": 8, "unit": "fold"}
    ]}
  ]
}
